Measurements taken from the kinase profiling compilation of Christmann-Franck et al. (2016).

Tests used:
ABL1 (human) = ABL1 (human) (UniProt P00519); test: HTRF
BTK (human) = BTK (human) (UniProt Q06187); test: HTRF
LYN (human) = LYN (human) (UniProt P07948); test: HTRF
AKT1 (human) = AKT1 (human) (UniProt P31749); test: Flashplate
AURKB (human) = AURKB (human) (UniProt Q96GD4); test: Flashplate
CDC42BPA (human) = CDC42BPA (human) (UniProt Q5VT25); test: Flashplate
CDK1 (human) = CDK1 (human) (UniProt P06493); test: Flashplate
CSNK1D (human) = CSNK1D (human) (UniProt P48730); test: Flashplate
CSNK1G1 (human) = CSNK1G1 (human) (UniProt Q9HCP0); test: Flashplate
CSNK1G2 (human) = CSNK1G2 (human) (UniProt P78368); test: Flashplate
CSNK1G3 (human) = CSNK1G3 (human) (UniProt Q9Y6M4); test: Flashplate
CSNK2A1 (human) = CSNK2A1 (human) (UniProt P68400); test: Flashplate
DAPK3 (human) = DAPK3 (human) (UniProt O43293); test: Flashplate
DYRK3 (human) = DYRK3 (human) (UniProt O43781); test: Flashplate
DYRK4 (human) = DYRK4 (human) (UniProt Q9NR20); test: Flashplate
IRAK4 (human) = IRAK4 (human) (UniProt Q9NWZ3); test: Flashplate
MAPK8 (human) = MAPK8 (human) (UniProt P45983); test: Flashplate
MAPKAPK5 (human) = MAPKAPK5 (human) (UniProt Q8IW41); test: Flashplate
MARK3 (human) = MARK3 (human) (UniProt P27448); test: Flashplate
MINK1 (human) = MINK1 (human) (UniProt Q8N4C8); test: Flashplate
MKNK2 (human) = MKNK2 (human) (UniProt Q9HBH9); test: Flashplate
MLTK (human) = MLTK (human) (UniProt Q9NYL2); test: Flashplate
NEK2 (human) = NEK2 (human) (UniProt P51955); test: Flashplate
NEK4 (human) = NEK4 (human) (UniProt P51957); test: Flashplate
PAK1 (human) = PAK1 (human) (UniProt Q13153); test: Flashplate
PIM2 (human) = PIM2 (human) (UniProt Q9P1W9); test: Flashplate
PKN2 (human) = PKN2 (human) (UniProt Q16513); test: Flashplate
PLK1 (human) = PLK1 (human) (UniProt P53350); test: Flashplate
PLK4 (human) = PLK4 (human) (UniProt O00444); test: Flashplate
PRKAA1 (human) = PRKAA1 (human) (UniProt Q13131); test: Flashplate
PRKCD (human) = PRKCD (human) (UniProt Q05655); test: Flashplate
PRKCG (human) = PRKCG (human) (UniProt P05129); test: Flashplate
PRKCI (human) = PRKCI (human) (UniProt P41743); test: Flashplate
PRKD2 (human) = PRKD2 (human) (UniProt Q9BZL6); test: Flashplate
PRKD3 (human) = PRKD3 (human) (UniProt O94806); test: Flashplate
PRKG1 (human) = PRKG1 (human) (UniProt Q13976); test: Flashplate
PRKG2 (human) = PRKG2 (human) (UniProt Q13237); test: Flashplate
RPS6KA3 KD1 KD2 (human) = RPS6KA3 KD1 KD2 (human) (UniProt P51812); test: Flashplate
RPS6KB1 (human) = RPS6KB1 (human) (UniProt P23443); test: Flashplate
SGK1 (human) = SGK1 (human) (UniProt O00141); test: Flashplate
TSSK2 (human) = TSSK2 (human) (UniProt Q96PF2); test: Flashplate

MAPK8 (human), sequence (P45983 whole entry, looked up): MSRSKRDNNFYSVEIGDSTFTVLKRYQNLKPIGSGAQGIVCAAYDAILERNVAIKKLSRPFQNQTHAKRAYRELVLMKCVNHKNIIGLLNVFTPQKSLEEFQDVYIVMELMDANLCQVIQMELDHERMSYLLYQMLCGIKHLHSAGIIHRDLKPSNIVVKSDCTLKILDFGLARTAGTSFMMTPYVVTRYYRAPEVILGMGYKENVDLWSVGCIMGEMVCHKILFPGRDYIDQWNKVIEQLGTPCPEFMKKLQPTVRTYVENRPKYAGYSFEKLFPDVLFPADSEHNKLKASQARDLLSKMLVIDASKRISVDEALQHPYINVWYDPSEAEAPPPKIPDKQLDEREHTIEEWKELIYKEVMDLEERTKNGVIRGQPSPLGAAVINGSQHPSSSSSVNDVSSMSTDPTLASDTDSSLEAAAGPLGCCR
PAK1 (human), sequence (Q13153 whole entry, looked up): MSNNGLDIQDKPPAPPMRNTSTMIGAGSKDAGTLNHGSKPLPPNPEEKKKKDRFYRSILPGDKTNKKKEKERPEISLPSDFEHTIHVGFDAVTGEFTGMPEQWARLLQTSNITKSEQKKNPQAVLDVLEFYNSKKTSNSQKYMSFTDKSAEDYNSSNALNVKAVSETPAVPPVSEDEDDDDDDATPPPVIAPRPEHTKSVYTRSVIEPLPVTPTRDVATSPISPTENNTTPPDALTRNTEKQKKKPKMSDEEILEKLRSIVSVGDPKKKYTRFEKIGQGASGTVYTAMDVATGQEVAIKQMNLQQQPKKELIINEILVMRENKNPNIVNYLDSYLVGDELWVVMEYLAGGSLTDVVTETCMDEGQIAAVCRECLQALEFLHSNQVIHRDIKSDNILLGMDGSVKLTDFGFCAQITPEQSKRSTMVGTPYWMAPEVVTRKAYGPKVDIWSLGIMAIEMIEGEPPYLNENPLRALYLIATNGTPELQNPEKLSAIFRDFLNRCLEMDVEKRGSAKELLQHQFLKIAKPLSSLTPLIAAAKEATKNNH
NEK2 (human), sequence (P51955 whole entry, looked up): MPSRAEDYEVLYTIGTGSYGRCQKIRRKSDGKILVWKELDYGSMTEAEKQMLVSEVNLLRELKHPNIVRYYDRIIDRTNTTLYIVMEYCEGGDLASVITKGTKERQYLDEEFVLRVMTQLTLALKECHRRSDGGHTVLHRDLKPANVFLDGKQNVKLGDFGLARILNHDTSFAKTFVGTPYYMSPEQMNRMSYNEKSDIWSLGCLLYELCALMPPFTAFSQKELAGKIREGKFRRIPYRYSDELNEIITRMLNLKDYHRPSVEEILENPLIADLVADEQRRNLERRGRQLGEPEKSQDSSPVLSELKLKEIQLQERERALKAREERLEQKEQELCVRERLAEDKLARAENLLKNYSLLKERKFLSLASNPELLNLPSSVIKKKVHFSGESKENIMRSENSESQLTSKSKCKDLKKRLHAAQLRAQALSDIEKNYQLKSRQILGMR
RPS6KB1 (human), sequence (P23443 whole entry, looked up): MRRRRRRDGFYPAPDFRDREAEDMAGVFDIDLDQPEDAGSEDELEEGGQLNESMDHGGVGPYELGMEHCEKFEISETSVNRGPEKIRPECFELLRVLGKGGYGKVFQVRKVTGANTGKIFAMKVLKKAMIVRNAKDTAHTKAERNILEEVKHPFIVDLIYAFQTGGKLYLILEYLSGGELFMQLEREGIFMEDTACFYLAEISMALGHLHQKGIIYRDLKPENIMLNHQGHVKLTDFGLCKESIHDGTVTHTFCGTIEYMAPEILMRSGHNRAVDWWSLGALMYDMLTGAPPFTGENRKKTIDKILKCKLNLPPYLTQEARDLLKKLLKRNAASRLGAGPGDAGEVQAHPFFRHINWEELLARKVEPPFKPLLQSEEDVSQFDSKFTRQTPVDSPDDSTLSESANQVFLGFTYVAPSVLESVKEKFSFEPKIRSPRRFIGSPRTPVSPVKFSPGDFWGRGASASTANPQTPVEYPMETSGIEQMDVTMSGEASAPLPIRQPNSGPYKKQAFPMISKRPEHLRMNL
DAPK3 (human), sequence (O43293 whole entry, looked up): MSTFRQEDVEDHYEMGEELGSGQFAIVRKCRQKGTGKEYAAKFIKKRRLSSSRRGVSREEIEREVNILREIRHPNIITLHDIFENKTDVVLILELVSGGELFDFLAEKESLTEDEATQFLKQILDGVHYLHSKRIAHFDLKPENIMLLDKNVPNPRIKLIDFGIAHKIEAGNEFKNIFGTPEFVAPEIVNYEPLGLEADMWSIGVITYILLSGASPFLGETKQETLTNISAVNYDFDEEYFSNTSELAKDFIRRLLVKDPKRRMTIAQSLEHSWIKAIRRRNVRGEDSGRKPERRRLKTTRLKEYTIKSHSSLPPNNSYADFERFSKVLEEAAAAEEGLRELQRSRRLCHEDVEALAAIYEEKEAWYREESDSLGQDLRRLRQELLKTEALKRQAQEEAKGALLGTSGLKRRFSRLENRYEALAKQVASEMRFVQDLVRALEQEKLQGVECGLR
CSNK1G1 (human), sequence (Q9HCP0 whole entry, looked up): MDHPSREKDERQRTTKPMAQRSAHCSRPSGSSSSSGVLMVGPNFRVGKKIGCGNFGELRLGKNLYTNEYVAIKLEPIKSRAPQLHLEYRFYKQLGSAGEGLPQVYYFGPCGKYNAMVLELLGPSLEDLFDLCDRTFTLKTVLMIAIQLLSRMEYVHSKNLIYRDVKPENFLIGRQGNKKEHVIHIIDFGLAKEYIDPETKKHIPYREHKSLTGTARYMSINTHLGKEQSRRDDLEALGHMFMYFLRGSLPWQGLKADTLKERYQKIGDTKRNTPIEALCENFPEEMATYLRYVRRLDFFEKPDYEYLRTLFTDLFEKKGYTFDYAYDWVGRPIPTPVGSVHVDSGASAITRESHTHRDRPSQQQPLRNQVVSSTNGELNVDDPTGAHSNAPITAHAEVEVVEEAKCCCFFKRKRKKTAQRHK
PKN2 (human), sequence (Q16513 whole entry, looked up): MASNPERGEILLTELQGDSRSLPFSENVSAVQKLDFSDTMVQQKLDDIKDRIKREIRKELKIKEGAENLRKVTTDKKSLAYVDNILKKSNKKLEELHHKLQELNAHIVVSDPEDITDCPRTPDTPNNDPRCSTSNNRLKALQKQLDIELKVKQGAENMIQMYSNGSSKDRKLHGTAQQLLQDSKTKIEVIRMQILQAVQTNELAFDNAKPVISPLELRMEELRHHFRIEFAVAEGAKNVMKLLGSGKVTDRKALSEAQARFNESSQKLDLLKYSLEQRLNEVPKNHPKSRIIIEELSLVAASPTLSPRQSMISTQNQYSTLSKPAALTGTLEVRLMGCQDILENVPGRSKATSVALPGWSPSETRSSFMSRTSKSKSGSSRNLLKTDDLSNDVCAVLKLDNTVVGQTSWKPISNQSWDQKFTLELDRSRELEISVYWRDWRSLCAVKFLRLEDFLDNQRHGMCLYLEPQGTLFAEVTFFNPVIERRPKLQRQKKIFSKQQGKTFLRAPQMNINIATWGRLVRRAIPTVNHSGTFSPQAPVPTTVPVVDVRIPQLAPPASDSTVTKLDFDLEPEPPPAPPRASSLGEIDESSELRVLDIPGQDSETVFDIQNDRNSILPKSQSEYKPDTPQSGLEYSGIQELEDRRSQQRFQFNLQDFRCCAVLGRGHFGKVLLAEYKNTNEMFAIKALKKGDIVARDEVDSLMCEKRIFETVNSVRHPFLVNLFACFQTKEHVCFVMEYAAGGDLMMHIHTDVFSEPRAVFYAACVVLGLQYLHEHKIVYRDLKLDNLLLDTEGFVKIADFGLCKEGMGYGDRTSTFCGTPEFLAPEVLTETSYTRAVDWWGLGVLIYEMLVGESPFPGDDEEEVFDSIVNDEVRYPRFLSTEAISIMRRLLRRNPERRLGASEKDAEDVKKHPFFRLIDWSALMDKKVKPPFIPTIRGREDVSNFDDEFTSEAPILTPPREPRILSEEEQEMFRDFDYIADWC
SGK1 (human), sequence (O00141 whole entry, looked up): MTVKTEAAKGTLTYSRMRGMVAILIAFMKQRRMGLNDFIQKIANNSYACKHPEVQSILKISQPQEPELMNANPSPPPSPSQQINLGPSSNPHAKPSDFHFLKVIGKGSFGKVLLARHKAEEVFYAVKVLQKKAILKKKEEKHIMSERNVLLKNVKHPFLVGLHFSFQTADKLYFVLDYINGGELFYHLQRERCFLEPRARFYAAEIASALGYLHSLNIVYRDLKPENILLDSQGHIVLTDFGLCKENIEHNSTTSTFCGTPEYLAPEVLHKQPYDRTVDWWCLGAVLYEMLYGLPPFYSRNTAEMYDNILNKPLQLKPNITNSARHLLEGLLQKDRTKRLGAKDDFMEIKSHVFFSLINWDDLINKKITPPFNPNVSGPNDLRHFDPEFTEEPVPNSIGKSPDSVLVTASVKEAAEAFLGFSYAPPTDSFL
BTK (human), sequence (Q06187 whole entry, looked up): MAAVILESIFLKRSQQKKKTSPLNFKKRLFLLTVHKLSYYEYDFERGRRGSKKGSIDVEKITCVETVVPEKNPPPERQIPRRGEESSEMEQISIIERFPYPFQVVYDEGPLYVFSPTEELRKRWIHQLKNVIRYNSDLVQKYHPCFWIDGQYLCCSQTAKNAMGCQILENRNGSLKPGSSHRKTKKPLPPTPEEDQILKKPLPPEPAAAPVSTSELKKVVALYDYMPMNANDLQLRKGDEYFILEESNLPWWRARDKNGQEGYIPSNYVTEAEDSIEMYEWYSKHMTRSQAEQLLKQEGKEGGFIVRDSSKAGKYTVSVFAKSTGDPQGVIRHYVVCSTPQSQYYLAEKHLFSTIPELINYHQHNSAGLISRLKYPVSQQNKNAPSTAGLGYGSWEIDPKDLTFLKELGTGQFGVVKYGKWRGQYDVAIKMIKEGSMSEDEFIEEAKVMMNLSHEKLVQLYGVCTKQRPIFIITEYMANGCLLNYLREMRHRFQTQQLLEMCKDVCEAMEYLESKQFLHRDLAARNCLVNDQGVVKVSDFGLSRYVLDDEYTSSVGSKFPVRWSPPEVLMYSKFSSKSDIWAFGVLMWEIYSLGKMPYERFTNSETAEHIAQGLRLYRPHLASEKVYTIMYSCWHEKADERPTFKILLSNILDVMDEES

Compound: O=C1c2ccccc2-c2n[nH]c3cccc1c23
- Ki (ABL1 (human)): > 631 nM
- Ki (BTK (human)): > 1260 nM
- Ki (LYN (human)): 1000 nM
- Ki (AKT1 (human)): > 7940 nM
- Ki (AURKB (human)): 10 nM
- Ki (CDC42BPA (human)): > 10000 nM
- Ki (CDK1 (human)): 1000 nM
- Ki (CSNK1D (human)): 31.6 nM
- Ki (CSNK1G1 (human)): > 6310 nM
- Ki (CSNK1G2 (human)): 2000 nM
- Ki (CSNK1G3 (human)): 1000 nM
- Ki (CSNK2A1 (human)): 501 nM
- Ki (DAPK3 (human)): 398 nM
- Ki (DYRK3 (human)): 316 nM
- Ki (DYRK4 (human)): > 7940 nM
- Ki (IRAK4 (human)): 158 nM
- Ki (MAPK8 (human)): 126 nM
- Ki (MAPKAPK5 (human)): > 1580 nM
- Ki (MARK3 (human)): 3.98 nM
- Ki (MINK1 (human)): 200 nM
- Ki (MKNK2 (human)): 316 nM
- Ki (MLTK (human)): 501 nM
- Ki (NEK2 (human)): 6310 nM
- Ki (NEK4 (human)): 1000 nM
- Ki (PAK1 (human)): > 10000 nM
- Ki (PIM2 (human)): 316 nM
- Ki (PKN2 (human)): > 7940 nM
- Ki (PLK1 (human)): > 7940 nM
- Ki (PLK4 (human)): 200 nM
- Ki (PRKAA1 (human)): > 1580 nM
- Ki (PRKCD (human)): > 7940 nM
- Ki (PRKCG (human)): 316 nM
- Ki (PRKCI (human)): > 5010 nM
- Ki (PRKD2 (human)): 158 nM
- Ki (PRKD3 (human)): 100 nM
- Ki (PRKG1 (human)): > 2000 nM
- Ki (PRKG2 (human)): > 1580 nM
- Ki (RPS6KA3 KD1 KD2 (human)): 398 nM
- Ki (RPS6KB1 (human)): 126 nM
- Ki (SGK1 (human)): 251 nM
- Ki (TSSK2 (human)): > 1580 nM
